The target of assay [1] is T1, NAD-dependent protein deacetylase sirtuin-3, mitochondrial (Homo sapiens) (UniProt Q9NTG7).
T1 sequence (whole entry): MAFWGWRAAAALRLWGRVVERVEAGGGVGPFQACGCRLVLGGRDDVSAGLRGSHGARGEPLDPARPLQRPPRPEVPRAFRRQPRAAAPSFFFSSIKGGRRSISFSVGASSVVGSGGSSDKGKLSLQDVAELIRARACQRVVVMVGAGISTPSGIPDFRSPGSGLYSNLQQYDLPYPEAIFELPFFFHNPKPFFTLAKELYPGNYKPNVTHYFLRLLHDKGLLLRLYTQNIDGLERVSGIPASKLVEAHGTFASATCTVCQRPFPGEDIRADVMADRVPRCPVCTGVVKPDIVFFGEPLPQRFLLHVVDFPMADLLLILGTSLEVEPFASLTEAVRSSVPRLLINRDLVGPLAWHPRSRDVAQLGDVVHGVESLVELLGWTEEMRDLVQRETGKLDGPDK
In words: Substrate activity at human N-terminal His-tagged SIRT3 (122 to 391 residues) expressed in Escherichia coli at 50 uM measured after 2 hrs in presence of NAD+ and trypsin by fluorescence assay.

In assay [2] the target is NAD-dependent protein deacylase sirtuin-5, mitochondrial (Homo sapiens) (UniProt Q9NXA8). Kind of assay: Substrate activity at human N-terminal His-tagged SIRT5 (34 to 302 residues) expressed in Escherichia coli at 50 uM measured after 2 hrs in presence of NAD+ and trypsin by fluorescence assay.
For assay [3], the target named is NAD-dependent protein deacylase sirtuin-6 (Homo sapiens) (UniProt Q8N6T7). Kind of assay: Substrate activity at human N-terminal His-tagged SIRT6 (1 to 355 residues) expressed in Escherichia coli at 5 uM measured after 2 hrs in presence of NAD+ and trypsin by fluorescence assay.
In assay [4] the target is NAD-dependent protein deacylase sirtuin-5, mitochondrial (Homo sapiens) (UniProt Q9NXA8). Kind of assay: Substrate activity at human N-terminal His-tagged SIRT5 (34 to 302 residues) expressed in Escherichia coli at 5 uM measured after 2 hrs in presence of NAD+ and trypsin by fluorescence assay.
The target of assay [5] is NAD-dependent protein deacylase sirtuin-6 (Homo sapiens) (UniProt Q8N6T7). In words: Substrate activity at human N-terminal His-tagged SIRT6 (1 to 355 residues) expressed in Escherichia coli at 50 uM measured after 2 hrs in presence of NAD+ and trypsin by fluorescence assay.
The target in assay [6] is T2, NAD-dependent protein deacetylase sirtuin-2 (Homo sapiens) (UniProt Q8IXJ6).
T2 sequence (whole entry): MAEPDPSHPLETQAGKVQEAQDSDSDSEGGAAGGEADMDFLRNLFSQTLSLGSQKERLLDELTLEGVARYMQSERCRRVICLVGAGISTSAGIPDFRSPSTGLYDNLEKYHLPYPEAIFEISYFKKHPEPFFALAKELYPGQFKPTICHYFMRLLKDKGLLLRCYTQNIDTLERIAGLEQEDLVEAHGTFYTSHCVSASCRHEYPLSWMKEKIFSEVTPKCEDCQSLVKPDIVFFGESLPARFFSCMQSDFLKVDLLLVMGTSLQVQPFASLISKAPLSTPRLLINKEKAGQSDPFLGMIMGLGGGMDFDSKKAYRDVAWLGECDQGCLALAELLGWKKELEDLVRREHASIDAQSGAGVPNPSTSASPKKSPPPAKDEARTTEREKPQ
In words: Substrate activity at human N-terminal His-tagged SIRT2 (56 to 356 residues) expressed in Escherichia coli at 0.5 uM measured after 2 hrs in presence of NAD+ and trypsin by fluorescence assay.

In assay [7] the target is T3, NAD-dependent protein deacetylase sirtuin-7 (Homo sapiens) (UniProt Q9NRC8).
T3 sequence (whole entry): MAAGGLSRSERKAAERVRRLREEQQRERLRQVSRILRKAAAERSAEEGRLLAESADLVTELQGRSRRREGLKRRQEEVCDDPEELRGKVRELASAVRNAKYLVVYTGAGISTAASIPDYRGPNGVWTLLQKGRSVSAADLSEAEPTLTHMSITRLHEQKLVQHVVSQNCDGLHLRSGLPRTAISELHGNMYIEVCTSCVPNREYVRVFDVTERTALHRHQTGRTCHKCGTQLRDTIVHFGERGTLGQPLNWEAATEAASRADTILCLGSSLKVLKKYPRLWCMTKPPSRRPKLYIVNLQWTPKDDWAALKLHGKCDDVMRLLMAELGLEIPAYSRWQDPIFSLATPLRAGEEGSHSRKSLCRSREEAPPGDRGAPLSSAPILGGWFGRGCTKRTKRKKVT
In words: Substrate activity at human N-terminal His-tagged SIRT7 (68 to 354 residues) expressed in Escherichia coli at 0.5 uM measured after 2 hrs in presence of NAD+ and trypsin by fluorescence assay.

Assay [8] addresses T4, NAD-dependent protein deacetylase sirtuin-1 (Homo sapiens) (UniProt Q96EB6).
T4 sequence (whole entry): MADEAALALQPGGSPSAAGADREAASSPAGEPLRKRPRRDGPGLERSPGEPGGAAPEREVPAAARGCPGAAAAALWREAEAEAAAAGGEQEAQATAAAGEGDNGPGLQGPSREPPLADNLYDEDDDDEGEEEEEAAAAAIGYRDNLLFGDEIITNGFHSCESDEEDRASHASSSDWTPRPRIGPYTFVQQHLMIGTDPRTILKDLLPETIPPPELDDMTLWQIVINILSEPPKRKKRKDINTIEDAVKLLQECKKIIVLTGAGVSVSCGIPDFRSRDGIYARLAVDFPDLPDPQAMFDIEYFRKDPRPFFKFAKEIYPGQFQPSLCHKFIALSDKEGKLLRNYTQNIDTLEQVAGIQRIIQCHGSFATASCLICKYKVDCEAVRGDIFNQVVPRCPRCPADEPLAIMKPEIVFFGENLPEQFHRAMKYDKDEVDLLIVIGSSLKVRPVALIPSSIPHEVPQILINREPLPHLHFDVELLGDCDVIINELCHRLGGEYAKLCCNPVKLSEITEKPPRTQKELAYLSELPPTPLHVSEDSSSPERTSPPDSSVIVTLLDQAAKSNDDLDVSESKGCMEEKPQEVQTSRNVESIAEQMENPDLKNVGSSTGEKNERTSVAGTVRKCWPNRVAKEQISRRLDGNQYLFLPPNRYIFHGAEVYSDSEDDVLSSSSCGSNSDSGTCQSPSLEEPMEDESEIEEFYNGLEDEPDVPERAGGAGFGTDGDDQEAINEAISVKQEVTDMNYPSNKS
In words: Substrate activity at human N-terminal His-tagged SIRT1 (183 to 664 residues) expressed in Escherichia coli at 0.5 uM measured after 2 hrs in presence of NAD+ and trypsin by fluorescence assay.

The target in assay [9] is T2, NAD-dependent protein deacetylase sirtuin-2 (Homo sapiens). In words: Substrate activity at human N-terminal His-tagged SIRT2 (56 to 356 residues) expressed in Escherichia coli at 5 uM measured after 2 hrs in presence of NAD+ and trypsin by fluorescence assay.
The target is the same in assay [10]. Kind of assay: Substrate activity at human N-terminal His-tagged SIRT2 (56 to 356 residues) expressed in Escherichia coli at 5 uM measured after 1 hr in presence of NAD+ and trypsin by fluorescence assay.
Assay [11] has as its target NAD-dependent protein deacylase sirtuin-6 (Homo sapiens) (UniProt Q8N6T7). Kind of assay: Substrate activity at human N-terminal His-tagged SIRT6 (1 to 355 residues) expressed in Escherichia coli at 0.5 uM measured after 2 hrs in presence of NAD+ and trypsin by fluorescence assay.
Assay [12] has as its target T4, NAD-dependent protein deacetylase sirtuin-1 (Homo sapiens). In words: Substrate activity at human N-terminal His-tagged SIRT1 (183 to 664 residues) expressed in Escherichia coli at 50 uM measured after 2 hrs in presence of NAD+ and trypsin by fluorescence assay.
Assay [13] concerns the target T3, NAD-dependent protein deacetylase sirtuin-7 (Homo sapiens). Kind of assay: Substrate activity at human N-terminal His-tagged SIRT7 (68 to 354 residues) expressed in Escherichia coli at 50 uM measured after 2 hrs in presence of NAD+ and trypsin by fluorescence assay.
Assay [14] concerns the target T1, NAD-dependent protein deacetylase sirtuin-3, mitochondrial (Homo sapiens). In words: Substrate activity at human N-terminal His-tagged SIRT3 (122 to 391 residues) expressed in Escherichia coli at 0.5 uM measured after 2 hrs in presence of NAD+ and trypsin by fluorescence assay.
Assay [15] addresses T3, NAD-dependent protein deacetylase sirtuin-7 (Homo sapiens). In words: Substrate activity at human N-terminal His-tagged SIRT7 (68 to 354 residues) expressed in Escherichia coli at 5 uM measured after 2 hrs in presence of NAD+ and trypsin by fluorescence assay.
Assay [16] deals with NAD-dependent protein deacylase sirtuin-5, mitochondrial (Homo sapiens) (UniProt Q9NXA8). In words: Substrate activity at human N-terminal His-tagged SIRT5 (34 to 302 residues) expressed in Escherichia coli at 0.5 uM measured after 2 hrs in presence of NAD+ and trypsin by fluorescence assay.
For assay [17], the target named is T1, NAD-dependent protein deacetylase sirtuin-3, mitochondrial (Homo sapiens). In words: Substrate activity at human N-terminal His-tagged SIRT3 (122 to 391 residues) expressed in Escherichia coli at 5 uM measured after 2 hrs in presence of NAD+ and trypsin by fluorescence assay.
The target in assay [18] is T2, NAD-dependent protein deacetylase sirtuin-2 (Homo sapiens). Kind of assay: Substrate activity at human N-terminal His-tagged SIRT2 (56 to 356 residues) expressed in Escherichia coli at 50 uM measured after 2 hrs in presence of NAD+ and trypsin by fluorescence assay.
The target of assay [19] is T4, NAD-dependent protein deacetylase sirtuin-1 (Homo sapiens). Kind of assay: Substrate activity at human N-terminal His-tagged SIRT1 (183 to 664 residues) expressed in Escherichia coli at 5 uM measured after 2 hrs in presence of NAD+ and trypsin by fluorescence assay.

Structures are written as SMILES. The source made the active and inactive calls. The calls are words filed in the database; no cut-off is given here. Where a SMILES comes first, the peptide text is derived from it. The star is where a group is joined. AMC = Cc1cc(=O)oc2cc(N*)ccc12; Decanoyl = CCCCCCCCCC(=O)*

Chain of NAD-dependent protein deacylase sirtuin-5, mitochondrial (Homo sapiens) (Q9NXA8 37-310 limits assumed): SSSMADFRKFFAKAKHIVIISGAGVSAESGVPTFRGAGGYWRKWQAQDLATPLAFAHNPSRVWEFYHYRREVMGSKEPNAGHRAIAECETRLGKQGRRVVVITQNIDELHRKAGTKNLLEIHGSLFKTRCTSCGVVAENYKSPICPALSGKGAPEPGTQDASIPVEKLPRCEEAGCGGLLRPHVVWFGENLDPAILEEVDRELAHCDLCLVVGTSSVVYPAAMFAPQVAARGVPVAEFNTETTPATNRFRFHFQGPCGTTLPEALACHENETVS
Chain of NAD-dependent protein deacylase sirtuin-6 (Homo sapiens) (Q8N6T7 whole entry, the tested form may be a part): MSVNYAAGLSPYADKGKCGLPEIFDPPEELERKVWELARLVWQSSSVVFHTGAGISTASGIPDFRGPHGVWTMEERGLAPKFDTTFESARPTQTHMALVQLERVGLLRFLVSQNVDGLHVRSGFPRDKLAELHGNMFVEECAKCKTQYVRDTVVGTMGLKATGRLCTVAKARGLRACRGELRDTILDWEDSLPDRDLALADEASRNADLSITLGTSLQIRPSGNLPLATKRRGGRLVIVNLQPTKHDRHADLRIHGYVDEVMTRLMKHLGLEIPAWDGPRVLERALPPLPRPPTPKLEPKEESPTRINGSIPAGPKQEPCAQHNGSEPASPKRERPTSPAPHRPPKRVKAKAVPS

For `CCCCCCCCCC(=O)NCCCC[C@H](NC(=O)[C@H](CC(=O)O)NC(=O)[C@@H](NC(=O)[C@H](CCC(=O)O)NC(C)=O)[C@@H](C)O)C(=O)Nc1ccc2c(C)cc(=O)oc2c1` (Ac-ETDK(Decanoyl)-{AMC}), the Activity was found to be 1.86 RFU in assay [1]; 1.24 RFU in [2]; 0.33 RFU in assay [3]; 0.42 RFU in assay [4]; 0.73 RFU in assay [5]; 2.97 RFU in assay [6]. Besides, the Activity worked out at 0.28 RFU in assay [7]; 2.97 RFU in assay [8]; 20.6 RFU in assay [9]; 0.39 RFU in assay [11]; 4.13 RFU in [12]; 0.73 RFU in [13]. The Activity was determined as 0.51 RFU in [14]; 0.38 RFU in assay [15]; 0.3 RFU in assay [16]; 0.66 RFU in assay [17]; 79.9 RFU in assay [18]; 1.37 RFU in assay [19]. For the same compound, the result in assay [10] was Active.
Consider `CCCCCCCCCC(=O)NCCCC[C@H](NC(=O)[C@@H](NC(=O)[C@H](CO)NC(=O)[C@H](CO)NC(C)=O)[C@@H](C)CC)C(=O)Nc1ccc2c(C)cc(=O)oc2c1` (Ac-SSIK(Decanoyl)-{AMC}), for which the Activity stood at 1.64 RFU in [1]; 1.08 RFU in assay [2]; 0.3 RFU in assay [3]; 0.39 RFU in assay [4]; 0.73 RFU in assay [5]; 1.38 RFU in [6]. Also, the Activity in assay [7] worked out at 0.29 RFU; in [8], 1.38 RFU; in [9] it was 7.07 RFU; in assay [11] it was 0.4 RFU; in assay [12], 1.34 RFU; in assay [13], 0.73 RFU. Besides, the Activity in [14] was 0.67 RFU; in assay [15] it was 1.03 RFU; in [16], 0.31 RFU; in assay [17] it was 1.04 RFU; in assay [18], 13.5 RFU; in assay [19] it was 2.13 RFU. In assay [10], the outcome was Active.

The values above are taken from ChEMBL document CHEMBL4680222, “Sensitive fluorogenic substrates for sirtuin deacylase inhibitor discovery” (Eur J Med Chem, 2020).
